Assay results taken from patent publication US20220279787A1, “a-Substituted Phenyl Structure-Containing Compound, Preparation Method Thereof, and Disinfectant” (Henan Ruibo Pharmaceutical Technology Co. Ltd., priority 2019, published 2022).

Legend:
Format in all cases: cell-based
[1] = test system: Bacillus subtilis var. niger spores ATCC 9372; experiment: Suspension quantitative experiment, Bacillus subtilis var. niger spores; conditions: for Killing logarithmic value: suspension method
Description: (4) Operation Method of Suspension Quantitative Experiment:
a. The Bacillus subtilis var. niger spores ATCC 9372 freeze-dried strain tube was provided, opened up under an aseptic condition, and an appropriate amount of nutrient broth was added thereto with a capillary pipette. The strain was melted and dispersed by gently blowing and sucking several times. A test tube containing 5.0 mL-10.0 mL of nutrient broth medium was provided, and a small amount of bacterial suspension was dropped thereto, and incubated at 37° C. for 18 h-24 h. The bacterial suspension of the first generation culture was taken by using an inoculation loop.
b. The monoclonal strains of the first generation culture were picked out and placed in 3 mL of NMB. The strains were shaken in a constant temperature culture shaker for 3 h with a rotation speed of 220 rpm, obtaining a bacterial suspension with a concentration of (1-5)×10^8 CFU/mL.
c. 0.5 mL of bacterial suspension was added to a sterile test tube, and 0.5 mL of an organic interfering substance (0.03 mol/L PBS buffer) was then added thereto. They were mixed to be uniform, and placed in a water bath at 20° C.±1° C. for 5 min. 4.0 mL of the sample to be tested prepared in step (1) was drawn with a sterile pipette and injected into the mixed solution, mixed quickly, and the time was recorded immediately.
d. After the experimental bacteria interacted with the sample to be tested for the predetermined time. 0.5 mL of the mixture of the experimental bacteria and a disinfectant was drawn respectively and added to 4.5 mL of a neutralizer, and mixed to be uniform.
e. After 10 min of neutralization, 1.0 mL of the sample solution was drawn, and the number of viable bacteria was determined by viable count method. After the viable count method, sample solution of each pipette was inoculated onto 2 plates. When the number of colonies growing on the plate was large, 10-fold dilution was performed, and then the viable bacteria was cultured and counted.
h. At the same time, PBS buffer was used to replace the sample to be tested, and a parallel test was performed as a positive control.
f. All test samples were placed in a 37° C. incubator overnight, and the results were observed.
g. The experiment was repeated for 3 times, the concentration of viable bacteria (CFU/mL) of each group was calculated, and converted to logarithmic value (N), and then the killing logarithmic value was calculated according to the following equation:
Killing logarithmic value (KL)=the logarithmic value of the average viable bacteria concentration of the control group (No)−the logarithmic value of the viable bacteria concentration of the test group (Nx).
When calculating the killing logarithmic value, two digits after the decimal point was kept, and digital round-off was allowed.

[2] = test system: Escherichia coli ATCC 25922; experiment: Neutralizer identification experiment, Escherichia coli
Description: (§1) (4) Experimental Method for Selecting a Neutralizer:
(§2) Escherichia coli ATCC 25922 and Staphylococcus aureus ATCC 29213 were used as the experimental strains, and the concentration of the drug to be tested was set to be 2.5 g/L. The experiment was carried out according to the suspension quantitative sterilization procedure, with three repetitions, and six parallel groups:
(§3) Group I: 100 μL of a bacterial suspension (Escherichia coli ATCC 25922 with a concentration of 1×10^8 CFU/mL and Staphylococcus aureus ATCC 29213 with a concentration of 1×10^8 CFU/mL) interacted with 400 μL of the drug to be tested for 5 min; 50 μL of the mixed solution and 450 μL of PBS buffer were mixed to be uniform and diluted; the viable bacteria therein was counted;
(§4) Group II: 100 μL a bacterial suspension (Escherichia coli ATCC 25922 with a concentration of 1×10^8 CFU/mL and Staphylococcus aureus ATCC 29213 with a concentration of 1×10^8 CFU/mL) interacted with 400 μL of the drug to be tested for 5 min; 50 μL of the mixed solution and 450 μL of a neutralizer were mixed to be uniform and reacted for 10 min, and diluted; the viable bacteria therein was counted;
(§5) Group III: 10 μL of a bacterial suspension, 40 μL of sterile water, and 450 μL of a neutralizer were reacted for 10 min; the reaction solution was diluted, and the viable bacteria therein was counted;
(§6) Group V: 100 μL of bacterial suspension and 400 μL of a neutralizer were reacted for 5 min; 50 μL of the mixture and 450 μL of PBS buffer were mixed to be uniform, and then diluted; the viable bacteria therein was counted;
(§7) Group VI: a mixture of culture medium and PBS buffer was used as negative control.
(§8) Determination of the Results:
(§9) Group I had no bacteria growth or a small amount of bacteria growth;
(§10) Group II had bacteria growth, and the number of bacteria was not less than 100 CFU/mL;
(§11) the error rate of the number of bacteria between the Group III, Group IV, and Group V was less than or equal to 15%;
(§12) Group VI had no bacteria growth.

[3] = test system: Staphylococcus aureus ATCC 29213; experiment: Neutralizer identification experiment, Staphylococcus aureus
Description: as §1, §2, §3, §4, §5, §6, §7, §8, §9, §10, §11, §12

[4] = test system: Bacillus subtilis var. niger spores ATCC 9372; experiment: Carrier immersion quantitative sterilization test; conditions: carrier method
Description: (5) Operation Method of the Carrier Immersion Quantitative Sterilization Test:
a. A sterile small plate was provided, and marked with the concentration of the sample to be tested injected. The sample to be tested of the corresponding concentration was drawn and injected into the plate in an amount of 5.0 mL per piece.
b. 3 pieces of Bacillus subtilis var. niger spores were placed on the plate by using a sterile tweezer, and soaked in the sample to be tested.
c. After the bacteria and drugs interacted for each predetermined time, the bacteria pieces were taken out by using a sterile tweezer and transferred into a test tube containing 5.0 mL of a neutralizer. The test tube was vibrated 80 times in the palm of the hand to wash the bacteria on the bacteria piece into the neutralization solution, left to stand for another 10 min to fully neutralize. Finally after further mixing, 1.0 mL of the mixture was drawn and directly inoculated onto the plate, 2 plates for each pipette, and the number of viable bacteria was determined.
d. Another plate was provided, and 10.0 mL of PBS buffer was injected instead of the sample to be tested. 2 pieces of bacteria were added thereto as the positive control group, and the subsequent test steps and viable bacteria culture and counting were the same as the above test groups.
e. All test samples were cultured overnight in a 37° C. incubator, and the results were observed.
f. The experiment was repeated for 3 times (including the control group), and the number of viable bacteria (CFU/piece) in each group was calculated and converted to a logarithmic value (N).

[5] = 2.5 g/L drug reacted with neutralizer 10 min, then bacterial suspension added
[6] = 2.5 g/L drug, 5 min, then mixed with PBS buffer
[7] = 2.5 g/L drug, 5 min, then neutralizer 10 min

What does the source list for `CNC(=O)C(c1ccc(O)c(O)c1)c1ccco1` (stereo not shown) [Example 5, 2-(3,4-dihydroxyphenyl)-2-(2-furyl)-N-methylacetamide]?
log reduction at 15000 µg/mL ([1]; Bacillus subtilis, ATCC9372, 0.5 h, read-out: Activity (killing logarithmic value)): 5.6; Viable bacteria count, Group IV [2, 5]: 6 × 10^6 CFU/mL; Viable bacteria count, Group I [2, 6]: 2 × 10^4 CFU/mL; Viable bacteria count, Group II [2, 7]: 400 CFU/mL; Viable bacteria count, Group IV [3, 5]: 7 × 10^5 CFU/mL; Viable bacteria count, Group I [3, 6]: 3 × 10^4 CFU/mL; Viable bacteria count, Group II [3, 7]: 5 × 10^4 CFU/mL

Which Killing logarithmic value ([1]; 5 g/L, 10 min) does the source give for `O=Cc1ccccc1C=O` [o-Phthalaldehyde solution, o-Phthalaldehyde] here?
Its Killing logarithmic value is 5.23.

And the Killing logarithmic value ([1]; 5 g/L, 20 min)?
Its Killing logarithmic value is 5.31.

What about the Killing logarithmic value ([1]; 5 g/L, 30 min) of the same compound?
The Killing logarithmic value was 5.39.

And the Killing logarithmic value ([1]; 10 g/L, 10 min)?
Its Killing logarithmic value is 5.41.

What about the Killing logarithmic value ([1]; 10 g/L, 20 min) of the same compound?
Its Killing logarithmic value is 5.49.

And the Killing logarithmic value ([1]; 10 g/L, 30 min)?
Its Killing logarithmic value is 5.57.

What about the Killing logarithmic value ([1]; 15 g/L, 10 min) of the same compound?
The Killing logarithmic value was 5.53.

What about the Killing logarithmic value ([1]; 15 g/L, 20 min) of the same compound?
Its Killing logarithmic value is 5.68.

What about the Killing logarithmic value ([1]; 15 g/L, 30 min) of the same compound?
Its Killing logarithmic value is 5.71.

What about the Killing logarithmic value ([4]; 5 g/L, 1 h) of the same compound?
The Killing logarithmic value was 1.95.

And the Killing logarithmic value ([4]; 5 g/L, 2 h)?
The Killing logarithmic value was 3.23.

What about the Killing logarithmic value ([4]; 5 g/L, 3 h) of the same compound?
Its Killing logarithmic value is 5.21.

And the Killing logarithmic value ([4]; 5 g/L, 4 h)?
The Killing logarithmic value was 5.53.

And the Killing logarithmic value ([4]; 10 g/L, 1 h)?
The Killing logarithmic value was 2.19.

What about the Killing logarithmic value ([4]; 10 g/L, 2 h) of the same compound?
Its Killing logarithmic value is 5.12.

What about the Killing logarithmic value ([4]; 10 g/L, 3 h) of the same compound?
The Killing logarithmic value was 5.26.

And the Killing logarithmic value ([4]; 10 g/L, 4 h)?
Its Killing logarithmic value is 5.53.

What about the Killing logarithmic value ([4]; 15 g/L, 1 h) of the same compound?
The Killing logarithmic value was 3.23.

And the Killing logarithmic value ([4]; 15 g/L, 2 h)?
The Killing logarithmic value was 5.21.

And the Killing logarithmic value ([4]; 15 g/L, 3 h)?
The Killing logarithmic value was 5.36.

And the Killing logarithmic value ([4]; 15 g/L, 4 h)?
Its Killing logarithmic value is 5.53.
